Converted amounts (≈) assume the structure as drawn.
Key:
Assay type in all cases: functional
[1] = In vitro cytotoxicity against the growth of Colon-205 cancer cell line; settings: Homo sapiens, Cancer cell lines; read-out: LD50 (the source's name)
HEp-2 = assay: In vitro cytotoxicity against the growth of Hep-2 cell line; settings: Homo sapiens, read-out: LD50 (the source's name)
HeLa = assay: In vitro cytotoxicity against the growth of HeLa-cell line; settings: Homo sapiens, read-out: LD50 (the source's name)
KB 3-1 = assay: In vitro cytotoxicity against the growth of KB-cell line; settings: Homo sapiens, read-out: LD50 (the source's name)

Row | Structure (SMILES) | CC50 [1] [µg/mL] | CC50 (HEp-2) [µg/mL] | CC50 (HeLa) [µg/mL] | CC50 (KB 3-1) [µg/mL]
1 | CCC(=O)/C=C\C=C\C(=O)c1ccccc1 | 1 (≈ 4.67 µM) | > 10 | > 10 | > 10
2 | CCC(=O)/C=C/C=C\C(C)=O | > 10 | > 10 | > 10 | > 10
3 | CC(=O)/C=C\C=C\C(=O)c1ccccc1 | 1 (≈ 4.99 µM) | > 10 | > 10 | 0.8 (≈ 4 µM)
4 | CCCCCCC(=O)/C=C\C=C\C(=O)c1ccc(C(=O)OC)cc1 | 0.8 (≈ 2.44 µM) | > 10 | > 10 | > 10
5 | CCCCCCC(=O)/C=C/C=C/C(=O)c1ccc(C(=O)OC)cc1 | > 10 | > 10 | > 10 | > 10
6 | CCC(=O)/C=C/C=C\C(=O)CC(C)C | > 10 | > 10 | > 10 | > 10

From ChEMBL document CHEMBL1131687, “Dienyl diketones as anticancer agents: synthesis and biological evaluation of some aromatic derivatives” (1999)
